Reference: paper PMC5764337 (PLoS ONE, 2018)
pIC50: −log10 of the molar value.

Columns and labels:
[1] = target: B/BR/60/08 virus NA (Influenza B virus, UniProt C0LT34); assay type: biochemical; settings: read-out: NA enzyme inhibition assay (mean IC50 ± SD)
[2] = target: A/PR8-WT virus NA (Influenza A virus (H3N2), UniProt A0A193ACB1); assay type: biochemical

SMILES: CCC(CC)[C@H](NC(C)=O)[C@@H]1[C@H](O)[C@@H](C(=O)O)C[C@H]1N=C(N)N [Peramivir, peramivir]
- pIC50 [1]: 9.30
- fold increase in IC50 over A/PR8-WT [2]: 0.1 ± 0.02 (1) fold
- pIC50 ([2]; read-out: NA enzyme inhibition assay (mean IC50 ± SD)): 10.00
